# Experimental data published in patent publication US20260206754A1, “HETEROARYL COMPOUNDS FOR THE CONTROL OF INVERTEBRATE PESTS” (priority 2022, published 2026).
# Like-named read-outs stand apart in the source and are kept apart here.
# Columns and labels:
# Assay type in all cases: in vivo
# [1] = tested on: tobacco budworm (Heliothis virescens); assay: B.1 Tobacco budworm, 96-well microtiter plate diet test with eggs; settings: for mortality at 2500 ppm: 120 h, egg and larval mortality after 5 days, read-out: mortality in comparison with untreated controls
# Description: (§1) If not otherwise specified, the test solutions were prepared as follow: The active compound was dissolved at the desired concentration in a mixture of 1:1 (vol:vol) distilled water:acetone. The test solution was prepared on the day of use.
# B.1 Tobacco Budworm (Heliothis virescens)
# For evaluating control of tobacco budworm (Heliothis virescens) the test unit consisted of 96-well-microtiter plates containing an insect diet and 15-25 H. virescens eggs.
# The compounds were formulated using a solution containing 75% v/v water and 25% v/v DMSO. Different concentrations of formulated compounds were sprayed onto the insect diet at 10 μl, using a custom-built micro atomizer, at two replications.
# After application, microtiter plates were incubated at about 28±1° C. and about 80±5% relative humidity for 5 days. Egg and larval mortality was then visually assessed.
# [2] = tested on: boll weevil (Anthonomus grandis); assay: B.2 Boll weevil, 96-well microtiter plate diet test with eggs; settings: Anthonomus grandis; for mortality at 2500 ppm: 120 h, egg and larval mortality after 5 days, read-out: mortality in comparison with untreated controls
# Description: as §1
# B.2 Boll Weevil (Anthonomus grandis)
# For evaluating control of boll weevil (Anthonomus grandis) the test unit consisted of 96-well-microtiter plates containing an insect diet and 5-10 A. grandis eggs.
# The compounds were formulated using a solution containing 75% v/v water and 25% v/v DMSO. Different concentrations of formulated compounds were sprayed onto the insect diet at 5 μl, using a custom-built micro atomizer, at two replications.
# After application, microtiter plates were incubated at about 25±1° C. and about 75±5% relative humidity for 5 days. Egg and larval mortality was then visually assessed.
# [3] = tested on: Southern armyworm (Spodoptera eridania), 2nd instar larvae; assay: B.3 Southern armyworm, 2nd instar larvae, foliar spray on lima bean plants; settings: 96 h, 4 days after treatment, read-out: mortality in comparison with untreated controls
# Description: B.3 Southern Armyworm (Spodoptera eridania), 2nd Instar Larvae
# The active compounds were formulated by a Tecan liquid handler in 100% cyclohexanone as a 10,000-ppm solution supplied in tubes. The 10,000-ppm solution was serially diluted in 100% cyclohexanone to make interim solutions. These served as stock solutions for which final dilutions were made by the Tecan in 50% acetone:50% water (v/v) into 10 or 20 ml glass vials. A non-ionic surfactant (Kinetic@) was included in the solution at a volume of 0.01% (v/v). The vials were then inserted into an automated electrostatic sprayer equipped with an atomizing nozzle for application to plants/insects. Lima bean plants (variety Sieva) were grown 2 plants to a pot and selected for treatment at the 1st true leaf stage. Test solutions were sprayed onto the foliage by an auto-mated electrostatic plant sprayer equipped with an atomizing spray nozzle. The plants were dried in the sprayer fume hood and then removed from the sprayer. Each pot was placed into perforated plastic bags with a zip closure. Ten to 11 armyworm larvae were placed into the bag and the bags zipped closed. Test plants were maintained in a growth room at about 25° C. and about 20-40% relative humidity for 4 days, avoiding direct exposure to fluorescent light (14:10 light:dark photoperiod) to prevent trapping of heat inside the bags. Mortality and reduced feeding were assessed 4 days after treatment, compared to untreated control plants.
# [4] = tested on: yellow fever mosquito (Aedes aegypti); assay: whole plant or invertebrate; settings: for mortality at 2500 ppm: 48 h, larval mortality after 2 days, read-out: mortality in comparison with untreated controls; for mortality at 90 ppm: comparative experiment C.4, read-out: B.5, 90 ppm (mortality)
# Description: as §1
# B.5 Yellow Fever Mosquito (Aedes aegypti)
# For evaluating control of yellow fever mosquito (Aedes aegypti) the test unit consisted of 96-well-microtiter plates containing 200 μl of tap water per well and 5-15 freshly hatched A. aegypti larvae.
# The active compounds were formulated using a solution containing 75% (v/v) water and 25% (v/v) DMSO. Different concentrations of formulated compounds or mixtures were sprayed onto the insect diet at 2.5 μl, using a custom-built micro atomizer, at two replications.
# After application, microtiter plates were incubated at 281° C., 80±5% RH for 2 days. Larval mortality was then visually assessed.
# [5] = tested on: green peach aphid (Myzus persicae); assay: B.6 Green peach aphid, systemic test with artificial diet under membrane
# Description: as §1
# B.6 Green Peach Aphid (Myzus persicae)
# For evaluating control of green peach aphid (Myzus persicae) through systemic means, the test unit consisted of 96-well-microtiter plates containing liquid artificial diet under an artificial membrane.
# The compounds were formulated using a solution containing 75% v/v water and 25% v/v DMSO. Different concentrations of formulated compounds were pipetted into the aphid diet, using a custom built pipetter, at two replications.
# After application, 5-8 adult aphids were placed on the artificial membrane inside the microtiter plate wells. The aphids were then allowed to suck on the treated aphid diet and incubated at about 23±1° C. and about 50±5% relative humidity for 3 days. Aphid mortality and fecundity was then visually assessed.
# [6] = 72 h, aphid mortality after 3 days, read-out: mortality in comparison with untreated controls
SMILES,mortality at 2500 ppm [1] [%],mortality at 2500 ppm [2] [%],"mortality at 30 ppm ([2]; 30 ppm, comparative experiment C.3) [%]",mortality at 300 ppm [3] [%],mortality at 2500 ppm [4] [%],"mortality at 90 ppm ([5]; 90 ppm, comparative experiment C.3) [%]","mortality at 2500 ppm [5, 6] [%]","mortality at 90 ppm ([1]; 90 ppm, comparative experiment C.1) [%]",mortality at 30 ppm ([5]; comparative experiment C.1) [%],mortality at 90 ppm ([2]; comparative experiment C.5) [%],"mortality at 80 ppm ([4]; 80 ppm, comparative experiment C.5, read-out: B.5, 80 ppm (mortality)) [%]","mortality at 2500 ppm ([5]; comparative experiment C.5, read-out: B.6, 2500 ppm (mortality)) [%]",mortality at 90 ppm ([2]; comparative experiment C.4) [%],mortality at 90 ppm [4] [%],mortality at 30 ppm ([5]; comparative experiment C.4) [%]
CC(NC(=O)c1cc(C(F)(F)F)cc(C(F)(F)F)c1)c1nccnc1-n1cc(-c2cccnc2)nn1 (centres unmarked) [I-9],≥ 75,≥ 75,100,≥ 75,≥ 75,100,≥ 75,–,–,–,–,–,–,–,–
"CC(NC(=O)c1cc(C(F)(F)F)cc(C(F)(F)F)c1)c1nccnc1-n1ncc(-c2ccccn2)n1 (centres unmarked) [I-14, N-[1-[3-[4-(2-pyridyl)triazol-2-yl]pyrazin-2-yl]ethyl]-3,5-bis(trifluoro-methyl)benzamide]",≥ 75,≥ 75,–,≥ 75,≥ 75,–,≥ 75,100,100,–,–,–,–,–,–
"CC(NC(=O)c1cc(C(F)(F)F)cc(C(F)(F)F)c1)c1nccnc1-n1cc(S(C)(=O)=O)cn1 (centres unmarked) [I-17, N-[1-[3-(4-methylsulfonylpyrazol-1-yl)pyrazin-2-yl]ethyl]-3,5-bis(trifluoromethyl)benzamide]",≥ 75,≥ 75,–,≥ 75,≥ 75,–,≥ 75,–,–,100,100,100,–,–,–
CC(NC(=O)c1cc(C(F)(F)F)cc(C(F)(F)F)c1)c1nccnc1-n1cc(-c2ccncn2)cn1 (centres unmarked) [I-42],≥ 75,≥ 75,–,≥ 75,≥ 75,–,≥ 75,–,–,–,–,–,100,100,100
CC(NC(=O)c1cc(C(F)(F)F)cc(C(F)(F)F)c1)c1nccnc1-n1cc(-c2nccs2)cn1 (centres unmarked) [I-51],≥ 75,≥ 75,–,≥ 75,≥ 75,–,≥ 75,–,–,–,–,–,100,100,100
